≈ marks a conversion by molar mass, not a printed value.
Columns and labels:
Aspergillus niger = experiment: Series dilution test in vitro, minimum inhibitory concentration, Aspergillus niger; assay type: cell-based; settings: 28° C, 24 to 96 hours
Experimental: (§1) Determination of the antimycotic spectrum of activity in vitro by the series dilution test.
(§2) The nutrient media used were Sabouraud's milieu d'epreuve for dermatophyties and molds and meat broth-glucose bouillon for blastomyces and biphase fungi.
(§3) The incubation temperature was 28° C and the incubation time was 24 to 96 hours.

Candida albicans [1] = experiment: Candidosis in mice, oral treatment; assay type: in vivo, Mice of the type SPF-C1; settings: orally 50, 75, 100 and 150 mg/kg, one hour before and 7 hours after infection; untreated control ~5% survival
Experimental: Description of the experiment:
Mice of the type SPF-C1 were infected intravenously with 1-2 × 10^6 logarithmically-growing Candida cells suspended in physiological sodium chloride solution.
One hour before, and 7 hours after, the infection the animals are treated orally with 50, 75, 100 and 150 mg/kg of body weight of the preparations.
Untreated animals died of the infection 3 to 6 days after infection. The survival rate on the 6th day after infection was ~ 5% in untreated control animals.

Candida Albicans [2] = experiment: Series dilution test in vitro, minimum inhibitory concentration, Candida albicans; assay type: cell-based; settings: 28° C, 24 to 96 hours
Experimental: as §1, §2, §3

[3] = tested on: Trichophyton mentagrophytes; experiment: Series dilution test in vitro, minimum inhibitory concentration, Trichophyton mentagrophytes; assay type: cell-based; settings: 28° C, 24 to 96 hours
Experimental: as §1, §2, §3

Structure (SMILES)	MIC (Aspergillus niger; n.s. = no added serum) [µg/mL]	MIC (Aspergillus niger; w.s. = with 30% serum added) [µg/mL]	Action on candidosis in Mice (survival on the 6th day after infection) (Candida albicans [1])	MIC (Candida Albicans [2]; n.s. = no added serum) [µg/mL]	MIC ([3]; n.s. = no added serum) [µg/mL]	MIC ([3]; w.s. = with 30% serum added) [µg/mL]	MIC (Candida Albicans [2]; w.s. = with 30% serum added) [µg/mL]
Cc1cccc(C(c2ccccc2)(c2ccccc2)n2ccnc2)c1C [Example 1, 1-(2,3-dimethylphenyl-diphenyl)-methyl-imidazole]	4 (≈ 11.8 µM)	40 (≈ 118 µM)	+++++ (very good action = >90% survival on the 6th day after infection)	1 (≈ 2.95 µM)	< 1	4 (≈ 11.8 µM)	–
Cc1ccc(C(c2ccccc2)(c2ccccc2)n2ccnc2)c(C)c1 [Example 2, 1-(2,4-Dimethylphenyl-diphenyl)-methyl-imidazole]	–	–	+++++ (very good action = >90% survival on the 6th day after infection)	–	–	–	–
Cc1ccc(C)c(C(c2ccccc2)(c2ccccc2)n2ccnc2)c1 [Example 3, 1-(2,5-Dimethylphenyl-diphenyl)-methyl-imidazole]	–	–	++++ (good action = >80% survival on the 6th day after infection)	1 (≈ 2.95 µM)	< 1	40 (≈ 118 µM)	–
Cc1cc(Cl)ccc1C(c1ccccc1)(c1ccccc1)n1ccnc1 [Example 4, 1-(2-Methyl-4-chlorophenyl-diphenyl)-methyl-imidazole]	–	–	+++++ (very good action = >90% survival on the 6th day after infection)	1 (≈ 2.79 µM)	< 1	10 (≈ 27.9 µM)	40 (≈ 111 µM)
Clc1cccc(C(c2ccccc2)(c2ccccc2)n2ccnc2)c1Cl [Example 6, 1-(2,3-Dichlorophenyl-diphenyl)-methyl-imidazole]	–	–	+++++ (very good action = >90% survival on the 6th day after infection)	–	–	–	–
Clc1cccc(Cl)c1C(c1ccccc1)(c1ccccc1)n1ccnc1 [Example 7, 1-(2,6-Dichlorophenyl-diphenyl)-methyl-imidazole]	–	–	+++++ (very good action = >90% survival on the 6th day after infection)	1 (≈ 2.64 µM)	< 1	4 (≈ 10.5 µM)	–
Cc1ccccc1C(c1ccccc1)(c1ccccc1C)n1ccnc1 [Example 8, 1-(2-Methylphenyl-2'-methylphenyl-phenyl)-methyl-imidazole]	–	–	+++++ (very good action = >90% survival on the 6th day after infection)	1 (≈ 2.95 µM)	< 1	10 (≈ 29.5 µM)	–
Clc1ccccc1C(c1ccccc1)(c1ccccc1Cl)n1ccnc1 [Example 9, 1-(2-Chlorophenyl-2'-chlorophenyl-phenyl)-methyl-imidazole]	–	10 (≈ 26.4 µM)	++++ (good action = >80% survival on the 6th day after infection)	1 (≈ 2.64 µM)	< 1	4 (≈ 10.5 µM)	–

From patent US4117142A, “Disubstituted triphenylmethylmidazoles for treating mycotic infections” (Bayer Aktiengesellschaft, priority 1972, dated 1978)
